Data taken from PubChem BioAssay AID1259407 (Chemical Carcinogenesis Research Information System (CCRIS), 2018).
Activity calls are given as the source filed them. How the calls were made is not given here.

Test system: CCRIS mutagenicity, Ames/micronucleus/aberration tests
Assay: CCRIS mutagenicity studies
[1] = Test System: AMES SALMONELLA TYPHIMURIUM, Strain/Indicator: TA98, Metabolic Activation: NONE, Method: STANDARD PLATE
[2] = Test System: AMES SALMONELLA TYPHIMURIUM, Strain/Indicator: TA98, Metabolic Activation: RAT, LIVER, S-9, AROCLOR 1254, Method: STANDARD PLATE
[3] = Test System: AMES SALMONELLA TYPHIMURIUM, Strain/Indicator: TA100, Metabolic Activation: NONE, Method: STANDARD PLATE
[4] = Test System: AMES SALMONELLA TYPHIMURIUM, Strain/Indicator: TA100, Metabolic Activation: RAT, LIVER, S-9, AROCLOR 1254 (10%), Method: PREINCUBATION
[5] = Test System: AMES SALMONELLA TYPHIMURIUM, Strain/Indicator: TA100, Metabolic Activation: RAT, LIVER, S-9, AROCLOR 1254, Method: STANDARD PLATE
[6] = Test System: AMES SALMONELLA TYPHIMURIUM, Strain/Indicator: TA1535, Metabolic Activation: NONE, Method: STANDARD PLATE
[7] = Test System: AMES SALMONELLA TYPHIMURIUM, Strain/Indicator: TA1535, Metabolic Activation: RAT, LIVER, S-9, AROCLOR 1254, Method: STANDARD PLATE
[8] = Test System: AMES SALMONELLA TYPHIMURIUM, Strain/Indicator: TA1537, Metabolic Activation: NONE, Method: STANDARD PLATE
[9] = Test System: AMES SALMONELLA TYPHIMURIUM, Strain/Indicator: TA1537, Metabolic Activation: RAT, LIVER, S-9, AROCLOR 1254, Method: STANDARD PLATE
[10] = Test System: AMES SALMONELLA TYPHIMURIUM, Strain/Indicator: TA1538, Metabolic Activation: NONE, Method: STANDARD PLATE
[11] = Test System: AMES SALMONELLA TYPHIMURIUM, Strain/Indicator: TA1538, Metabolic Activation: RAT, LIVER, S-9, AROCLOR 1254, Method: STANDARD PLATE
[12] = Test System: AMES SALMONELLA TYPHIMURIUM, Strain/Indicator: TA100, Metabolic Activation: NONE, Method: PREINCUBATION

SMILES: O=C1CCC(N2C(=O)c3ccccc3C2=O)C(=O)N1 (centres undefined)
- mutagenic call (Test System: AMES SALMONELLA TYPHIMURIUM, Strain/Indicator: TA97, Metabolic Activation: NONE, Method: STANDARD PLATE): inactive; negative
- mutagenic call (Test System: AMES SALMONELLA TYPHIMURIUM, Strain/Indicator: TA97, Metabolic Activation: RAT, LIVER, S-9, AROCLOR 1254, Method: STANDARD PLATE): inactive; negative
- mutagenic call [1]: inactive; negative
- mutagenic call (Test System: AMES SALMONELLA TYPHIMURIUM, Strain/Indicator: TA98, Metabolic Activation: RAT, LIVER, S-9, AROCLOR 1254 (4, 10 OR 30%), Method: PREINCUBATION): inactive; negative
- mutagenic call [2]: inactive; negative
- mutagenic call [3]: inactive; negative
- mutagenic call [4]: inactive; negative
- mutagenic call [5]: inactive; negative
- mutagenic call [6]: inactive; negative
- mutagenic call [7]: inactive; negative
- mutagenic call [8]: inactive; negative
- mutagenic call [9]: inactive; negative
- mutagenic call [10]: inactive; negative
- mutagenic call [11]: inactive; negative
- mutagenic call (Test System: MOUSE LYMPHOMA, Strain/Indicator: L5178Y (TK+/TK-), Metabolic Activation: NONE, Method: MICROWELL): inactive; negative
- mutagenic call (Test System: MOUSE LYMPHOMA, Strain/Indicator: L5178Y (TK+/TK-), Metabolic Activation: RAT, LIVER, S-9, PHENOBARBITAL AND BETA-NAPHTHOFLAVONE, Method: MICROWELL): inactive; negative

SMILES: O[C@@H]1[C@@H]2O[C@@H]2c2c(ccc3nc4ccc5ccccc5c4cc23)[C@H]1O
- mutagenic call [1]: active; positive
- mutagenic call (Test System: AMES SALMONELLA TYPHIMURIUM, Strain/Indicator: TA100, Metabolic Activation: GUINEA PIG, LIVER, S-9, 3-METHYLCHOLANTHRENE, Method: STANDARD PLATE): active; positive
- mutagenic call [3]: active; positive
- mutagenic call (Test System: CHINESE HAMSTER V-79, Strain/Indicator: V-79/6-THIOGUANINE, Metabolic Activation: NONE): active; positive

SMILES: Nc1ncn([C@@H]2O[C@H](CO)[C@@H](O)[C@@H]2O)c(=O)n1
- mutagenic call (Test System: AMES SALMONELLA TYPHIMURIUM, Strain/Indicator: TA98, Metabolic Activation: HAMSTER, LIVER, S-9, AROCLOR 1254, Method: STANDARD PLATE): inactive; negative
- mutagenic call [1]: inactive; negative
- mutagenic call [2]: inactive; negative
- mutagenic call (Test System: AMES SALMONELLA TYPHIMURIUM, Strain/Indicator: TA100, Metabolic Activation: HAMSTER, LIVER, S-9, AROCLOR 1254, Method: STANDARD PLATE): inactive; negative
- mutagenic call [3]: inactive; negative
- mutagenic call [5]: inactive; negative
- mutagenic call (Test System: AMES SALMONELLA TYPHIMURIUM, Strain/Indicator: TA1535, Metabolic Activation: HAMSTER, LIVER, S-9, AROCLOR 1254, Method: STANDARD PLATE): inactive; negative
- mutagenic call [6]: inactive; negative
- mutagenic call [7]: inactive; negative
- mutagenic call (Test System: AMES SALMONELLA TYPHIMURIUM, Strain/Indicator: TA1537, Metabolic Activation: HAMSTER, LIVER, S-9, AROCLOR 1254, Method: STANDARD PLATE): inactive; negative
- mutagenic call [8]: inactive; negative
- mutagenic call [9]: inactive; negative
- mutagenic call (Test System: AMES SALMONELLA TYPHIMURIUM, Strain/Indicator: TA1538, Metabolic Activation: HAMSTER, LIVER, S-9, AROCLOR 1254, Method: STANDARD PLATE): inactive; negative
- mutagenic call [10]: inactive; negative
- mutagenic call [11]: inactive; negative
- mutagenic call (Test System: MOUSE LYMPHOMA, Strain/Indicator: L5178Y (TK+/TK-), Metabolic Activation: NONE, Method: SUSPENSION/PLATE): active; positive. reevaluation of results: inconclusive
- mutagenic call (Test System: MOUSE LYMPHOMA, Strain/Indicator: L5178Y (TK+/TK-), Metabolic Activation: RAT, LIVER, S-9, AROCLOR 1254, Method: SUSPENSION/PLATE): inactive; negative. reevaluation of results: inconclusive

SMILES: O=[N+]([O-])[C-]1CCCC1
- mutagenic call [12]: active; positive
- mutagenic call (Test System: AMES SALMONELLA TYPHIMURIUM, Strain/Indicator: TA100, Metabolic Activation: RAT, LIVER, S-9, AROCLOR, Method: PREINCUBATION): active; positive
- mutagenic call (Test System: AMES SALMONELLA TYPHIMURIUM, Strain/Indicator: TA102, Metabolic Activation: NONE, Method: PREINCUBATION): active; positive
- mutagenic call (Test System: AMES SALMONELLA TYPHIMURIUM, Strain/Indicator: TA102, Metabolic Activation: RAT, LIVER, S-9, AROCLOR, Method: PREINCUBATION): active; positive

SMILES: CC(C)(c1cc(Br)c(O)c(Br)c1)c1cc(Br)c(O)c(Br)c1
- mutagenic call (Test System: AMES SALMONELLA TYPHIMURIUM, Strain/Indicator: TA98, Metabolic Activation: HAMSTER, LIVER, S-9, AROCLOR 1254 (10%), Method: PREINCUBATION): inactive; negative
- mutagenic call (Test System: AMES SALMONELLA TYPHIMURIUM, Strain/Indicator: TA98, Metabolic Activation: NONE, Method: PREINCUBATION): inactive; negative
- mutagenic call (Test System: AMES SALMONELLA TYPHIMURIUM, Strain/Indicator: TA98, Metabolic Activation: RAT, LIVER, S-9, AROCLOR 1254 (10%), Method: PREINCUBATION): inactive; negative
- mutagenic call (Test System: AMES SALMONELLA TYPHIMURIUM, Strain/Indicator: TA100, Metabolic Activation: HAMSTER, LIVER, S-9, AROCLOR 1254 (10%), Method: PREINCUBATION): inactive; negative
- mutagenic call [12]: inactive; negative
- mutagenic call [4]: inactive; negative
- mutagenic call (Test System: AMES SALMONELLA TYPHIMURIUM, Strain/Indicator: TA1535, Metabolic Activation: HAMSTER, LIVER, S-9, AROCLOR 1254 (10%), Method: PREINCUBATION): inactive; negative
- mutagenic call (Test System: AMES SALMONELLA TYPHIMURIUM, Strain/Indicator: TA1535, Metabolic Activation: NONE, Method: PREINCUBATION): inactive; negative
- mutagenic call (Test System: AMES SALMONELLA TYPHIMURIUM, Strain/Indicator: TA1535, Metabolic Activation: RAT, LIVER, S-9, AROCLOR 1254 (10%), Method: PREINCUBATION): inactive; negative
- mutagenic call (Test System: AMES SALMONELLA TYPHIMURIUM, Strain/Indicator: TA1537, Metabolic Activation: HAMSTER, LIVER, S-9, AROCLOR 1254 (10%), Method: PREINCUBATION): inactive; negative
- mutagenic call (Test System: AMES SALMONELLA TYPHIMURIUM, Strain/Indicator: TA1537, Metabolic Activation: NONE, Method: PREINCUBATION): inactive; negative
- mutagenic call (Test System: AMES SALMONELLA TYPHIMURIUM, Strain/Indicator: TA1537, Metabolic Activation: RAT, LIVER, S-9, AROCLOR 1254 (10%), Method: PREINCUBATION): inactive; negative

SMILES: CS(C)=O.[Cl-].[Cl-].[Pt+2].c1ccncc1
- mutagenic call (Test System: AMES SALMONELLA TYPHIMURIUM, Strain/Indicator: TA92, Metabolic Activation: NONE, Method: STANDARD PLATE): inactive; negative
- mutagenic call [1]: inactive; negative
- mutagenic call [3]: inactive; negative
- mutagenic call (Test System: AMES SALMONELLA TYPHIMURIUM, Strain/Indicator: TA2410, Metabolic Activation: NONE, Method: STANDARD PLATE): inactive; negative

SMILES: CCC(=O)OCC(=O)[C@@]1(OC(=O)CC)[C@H](C)C[C@H]2[C@H]3[C@H]([C@@H](O)C[C@@]21C)[C@@]1(C)C=CC(=O)C=C1C[C@H]3Cl
- mutagenic call [1]: inactive; negative
- mutagenic call [2]: inactive; negative
- mutagenic call [3]: inactive; negative
- mutagenic call [5]: inactive; negative
- mutagenic call [6]: inactive; negative
- mutagenic call [7]: inactive; negative
- mutagenic call [8]: inactive; negative
- mutagenic call [9]: inactive; negative
- mutagenic call (Test System: E. COLI, Strain/Indicator: WP2, Metabolic Activation: NONE, Method: STANDARD PLATE): inactive; negative
- mutagenic call (Test System: E. COLI, Strain/Indicator: WP2, Metabolic Activation: RAT, LIVER, S-9, AROCLOR 1254, Method: STANDARD PLATE): inactive; negative
- mutagenic call (Test System: E. COLI, Strain/Indicator: WP2 UVRA, Metabolic Activation: NONE, Method: STANDARD PLATE): inactive; negative
- mutagenic call (Test System: E. COLI, Strain/Indicator: WP2 UVRA, Metabolic Activation: RAT, LIVER, S-9, AROCLOR 1254, Method: STANDARD PLATE): inactive; negative
